Values of other authors, collected in patent US6624294B2, “Regioselective synthesis of 2′-O-modified nucleosides” (ISIS Pharmaceuticals, Inc., priority 1999, dated 2003).

Conditions: hydroxylamino function

Row | pKa | SMILES
1 | 4.2 | CON [MeONH2]
2 | 3.65 | CON(C)C [MeONHMe2]
3 | 4.75 | CNOC [MeONHMe]
